# Data from ChEMBL document CHEMBL1795328, “Synthesis of novel triplet drugs with 1,3,5-trioxazatriquinane skeletons and their pharmacologies. 1: Synthesis of triplet drugs with morphinan skeletons” (Bioorg Med Chem Lett, 2011).
# How the values were obtained:
# Mu-type opioid receptor = Mu-type opioid receptor (Cavia porcellus, UniProt P97266); assay: Displacement of [3H]-DAMGO from mu opioid receptor in guinea pig forebrain homogenates; assay type: tissue-based, Brain
# Cavia porcellus = species: Cavia porcellus; assay: Selectivity ratio of Ki for delta opioid receptor in guinea pig forebrain homogenates to Ki for mu opioid receptor in guinea pig forebrain homogenates; assay type: tissue-based
# [1] = Displacement of [3H]-NTI from delta opioid receptor in guinea pig forebrain homogenates; assay type: tissue-based, Cavia porcellus, Brain
# [2] = target: Kappa-type opioid receptor (Cavia porcellus, UniProt P41144); assay: Displacement of [3H]-U69593 from kappa opioid receptor in guinea pig cerebellum homogenates; assay type: tissue-based
# Kappa-type opioid receptor, sequence (P41144 whole entry): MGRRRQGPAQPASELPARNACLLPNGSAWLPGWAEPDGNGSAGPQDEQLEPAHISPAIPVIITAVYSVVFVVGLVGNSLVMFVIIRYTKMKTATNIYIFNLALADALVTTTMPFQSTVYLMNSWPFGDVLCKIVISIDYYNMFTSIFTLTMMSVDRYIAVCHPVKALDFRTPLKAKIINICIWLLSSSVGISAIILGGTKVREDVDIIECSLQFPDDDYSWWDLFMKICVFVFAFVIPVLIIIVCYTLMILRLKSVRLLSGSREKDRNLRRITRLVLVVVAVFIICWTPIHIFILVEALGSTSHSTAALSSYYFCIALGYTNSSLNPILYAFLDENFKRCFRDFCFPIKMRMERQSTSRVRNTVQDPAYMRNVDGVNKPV
# Mus musculus [3] = assay: Ratio of morphine ED50 to compound ED50 for antinociceptive activity in sc dosed mouse by acetic acid writhing test; assay type: functional
# Mus musculus [4] = assay: Antinociceptive activity in sc dosed mouse by acetic acid writhing test; assay type: functional
# Mu-type opioid receptor, sequence (P97266 whole entry): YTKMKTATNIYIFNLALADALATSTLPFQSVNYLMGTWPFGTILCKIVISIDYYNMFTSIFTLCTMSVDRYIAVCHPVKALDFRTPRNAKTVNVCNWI
SMILES,Ki (Mu-type opioid receptor) [nM],Ratio Ki (Cavia porcellus),Ki [1] [nM],Ki [2] [nM],Ratio ED50 (Mus musculus [3]),Activity (Mus musculus [4]),ED50 (Mus musculus [4]) [mg/kg]
Oc1ccc2c3c1O[C@H]1[C@]4(CC[C@H]5[C@@H](C2)N(CC2CC2)CC[C@@]351)O[C@@H]1N2[C@H]4O[C@]3(CC[C@H]4[C@H]5Cc6ccc(O)c7c6[C@@]4(CCN5CC4CC4)[C@H]3O7)[C@@H]2O[C@]12CC[C@H]1[C@H]3Cc4ccc(O)c5c4[C@@]1(CCN3CC1CC1)[C@H]2O5,22.3,2.4,53.7,43.2,–,–,–
CN1CC[C@]23c4c5ccc(O)c4O[C@H]2[C@]2(CC[C@@]3(O)[C@H]1C5)O[C@@H]1N3[C@H]2O[C@]2(CC[C@@]4(O)[C@H]5Cc6ccc(O)c7c6[C@@]4(CCN5CC4CC4)[C@H]2O7)[C@@H]3O[C@]12CC[C@@]1(O)[C@H]3Cc4ccc(O)c5c4[C@@]1(CCN3CC1CC1)[C@H]2O5,3.98,6.2,24.6,10.1,–,–,–
CN1CC[C@]23c4c5ccc(O)c4O[C@H]2[C@]2(CC[C@@]3(O)[C@H]1C5)O[C@@H]1N3[C@H]2O[C@]2(CC[C@@]4(O)[C@H]5Cc6ccc(O)c7c6[C@@]4(CCN5CC4CC4)[C@H]2O7)[C@@H]3O[C@]12CC[C@@]1(O)[C@H]3Cc4ccc(O)c5c4[C@@]1(CCN3C)[C@H]2O5,1.85,12.7,23.5,10.9,–,–,–
Oc1ccc2c3c1O[C@H]1[C@]4(CC[C@@]5(O)[C@@H](C2)N(CC2CC2)CC[C@]315)O[C@@H]1N2[C@H]4O[C@]3(CC[C@@]4(O)[C@H]5Cc6ccc(O)c7c6[C@@]4(CCN5CC4CC4)[C@H]3O7)[C@@H]2O[C@]12CC[C@@]1(O)[C@H]3Cc4ccc(O)c5c4[C@@]1(CCN3CC1CC1)[C@H]2O5,22.2,5.5,122,22.1,–,–,–
CN1CC[C@]23c4c5ccc(O)c4O[C@H]2[C@]2(CC[C@@]3(O)[C@H]1C5)O[C@@H]1N3[C@H]2O[C@]2(CC[C@@]4(O)[C@H]5Cc6ccc(O)c7c6[C@@]4(CCN5C)[C@H]2O7)[C@@H]3O[C@]12CC[C@@]1(O)[C@H]3Cc4ccc(O)c5c4[C@@]1(CCN3C)[C@H]2O5,1.05,36.8,38.6,16.1,16,Dose-dependent effect,0.037
O=C1CC[C@@]2(O)[C@H]3Cc4ccc(O)c5c4[C@@]2(CCN3CC2CC2)[C@H]1O5 [NALTREXONE],–,–,20.7,–,–,–,–
